Assay results taken from patent US20090156477A1, “Compositions and Methods for Regulating Inflammatory Responses” (Massachusetts Institute of Technology, priority 2005, published 2009).
“Also recorded” adds a separate entry of the source. Values belong to the compound of their own block, whether it stands above or below them.

Legend:
[1] = test system: Caco-2 cells; test: Transepithelial resistance (TER) of Caco-2 monolayers; assay type: cell-based, human
Method: (§1) Caco-2 cells were grown close to confluence, and T84 cells were grown to confluence. The apical chambers of transwell plates with 6.5 mm diameter and 3 μm pore size filters were pretreated with 50 μl of 45 μg/ml collagen IV in 60% ethanol 24 hours prior to plating and incubated overnight at room temperature. After reaching confluence, cells were washed with 20 ml PBS and treated with 3.5 ml trypsin-EDTA per 175 cm^2 flask for 20-60 min at 37° C. until cells detached. Cells were resuspended in 16.5 ml media appropriate to the cell type. Each apical chamber was supplemented with 82 μl cell solution. The basolateral chamber was filled with 1 ml propagation media. Filters were fed with new media every two days over the course of experiments.
(§2) Caco-2 and T84 cells were allowed to grow on transwells to form monolayers. Monolayer formation was examined every other day by light microscopy as well as by transepithelial resistance (TER) measurements using an EVOM ohmmeter (World Precision Instruments, Sarasota, Fla.). After monolayer formation, cells were treated with 100 ng/ml FGF1, 100 ng/ml FGF2, 100 ng/ml FGF7 or an equivalent volume (10 μl) of PBS. TER measurements were made either after 72 hours or at each of the 30 minutes, 1 hour, 2 hours, 4 hours, 9 hours, 24 hours and 48 hours timepoints. To determine the effects of multiple additions of ligand, FGFs or PBS were added initially and again after 2 days, and TER measurements were made after 0, 2 and 5 days.
(§3) To probe the mechanism by which various FGFs induced cell mediated effects, various media treatments were employed. Ammonium tetrathiomolybdate (TM) was added 24 hours prior to the addition of ligands to yield a final concentration of 200 μM, sufficient to prevent the release of FGF1 [3]. Similarly, sodium chlorate, which reduces cell HSPGs and the sulfation of associated HSGAGs, was added 24 hours prior to the addition of ligands to yield a final concentration of 50 mM [33,34]. Antibodies and kinase inhibitors were added immediately prior to ligands. Antibodies to FGF1, FGFR1 and FGFR3 were added at a 1:100 dilution. Kinase inhibitors were added to yield final concentrations of 50 μM LY294002, 20 μM PD98059, 1 μM SB203580. All experiments were performed in triplicate.
Caco-2 cells were grown to just prior to confluency. The apical chambers of transwell plates with 6.5 mm diameter and 3 μm pore size filters were pretreated with 50 μl of 45 μg/ml mouse recombinant collagen IV (BD Biosciences, Bedford, Mass.) in 60% ethanol 24 hours prior to plating. Plates were incubated overnight at room temperature. Just prior to confluency, cells were washed with 20 ml phosphate buffered saline (PBS) and treated with 3.5 ml trypsin-EDTA per 175 cm^2 flask for 20-60 min at 37° C., until cells detached. Cells were resuspended in 16.5 ml media appropriate to the cell type. Each apical chamber was supplemented with 82 μl cell solution. The basolateral chamber was filled with 1 ml propagation media. Filters were fed with new media every two days over the course of experiments.
Caco-2 cells were allowed to grow on transwells to form monolayers. Monolayer formation was examined every other day by light microscopy as well as by TER measurements using an EVOM ohmmeter (World Precision Instruments, Sarasota, Fla.). After monolayer formation, cells were treated with 100 ng/ml recombinant human FGF1 (Amgen, Thousand Oaks, Calif.), 100 ng/ml recombinant human FGF2 [1], 100 ng/ml recombinant human FGF7 (Sigma, St. Louis, Mo.), or an equivalent volume (10 μl) of PBS. TER measurements were made after each of 30 minutes, 1 hour, 2 hours, 4 hours, 9 hours, 24 hours and 48 hours.
To probe the mechanism by which various FGFs induced cellular mediated effects, various media treatments were employed. TM was added 24 hours prior to the addition of ligands to yield a final concentration of 200 μM, sufficient to prevent the release of FGF1 [3]. […]

[2] = test system: T84 cells; test: Transepithelial resistance (TER) of T84 monolayers; assay type: cell-based, human; conditions: agent given before or with 100 ng/ml FGFs (TM 200 μM, sodium chlorate 50 mM, LY294002 50 μM, antibodies 1:100)
Method: as §1, §2, §3

[3] = test system: Caco-2 cells; test: Caco-2 proliferation assay (whole cell number); assay type: cell-based, human; conditions: TM 200 μM, FGF1 added to TM treated cells
Method: (§4) Caco-2 cells were grown to just prior to confluence, and T84 cells were grown to confluence. Each flask was washed with 20 ml PBS and treated with 3 ml trypsin-EDTA at 37° C. for 20-60 minutes until cells detached. Cells were centrifuged for 3 minutes at 195×g. The supernatant was aspirated, and the cells were resuspended in 10 ml media. The cell density was measured using an electronic cell counter, and the suspension was diluted to 50,000 cells/ml. The suspension was plated at 1 ml/well into 12-well tissue culture plates. After a 24 hour incubation in a 5% CO2, 37° C. humidified incubator, the media was aspirated, the wells were washed with serum free media, and the cells were supplemented with media containing 0.1% FBS. The wells were then supplemented with 10 μl PBS, 50 mM sodium chlorate, or 200 μM TM, and incubated for 24 hours. Subsequently, cells were supplemented with 100 ng/ml FGF1, FGF2, FGF7, or 10 μl PBS, and incubated for 72 hours. Wells were then washed twice with PBS and treated with 0.5 ml trypsin-EDTA/well and incubated at 37° C. until cells detached. Whole cell number was determined using an electronic cell counter. Data was averaged over three experiments, each consisting of four wells per condition.

[4] = test system: FGF1; test: Immunohistochemistry for FGF1 in T84 cells; assay type: cell-based, human; conditions: 200 μM TM for 24 hours
Method: (§5) To determine FGFR and FGF1 expression, Caco-2 cells were grown to just prior to confluence, and T84 cells were grown to confluence on collagen-coated glass slides. Cells were washed with PBS supplemented with 5% BSA. To stain for FGFR3, rabbit anti-human FGFR3 antibodies were added to cells at a 1:500 dilution and incubated for 1 hour. Cells were washed with PBS supplemented with 5% BSA, and FITC-conjugated goat anti-rabbit antibodies were added and incubated for 30 minutes. Cells were washed with BSA-PBS and examined using fluorescence microscopy. For FGF1 analysis, cells were treated with 200 μM TM or 10 μl PBS for 24 hours, formalin fixed, treated with goat anti-human FGF1 antibodies at a 1:200 dilution and incubated for 4 hours. Cells were washed with PBS supplemented with 5% BSA, and Texas red-conjugated donkey anti-goat antibodies were added and incubated for 1 hour. Cells were washed with BSA-PBS and examined using fluorescence microscopy.

[5] = test system: T84 cells; test: T84 proliferation assay (whole cell number); assay type: cell-based, human; conditions: TM 200 μM, FGF1 added to TM treated cells
Method: as §4

[6] = test system: FGF1; test: Immunohistochemistry for FGF1 in Caco-2 cells; assay type: cell-based, human; conditions: 200 μM TM for 24 hours
Method: as §5

[7] = biological target: FGFR3b expressed by Caco-2 and T84 cells (human) (UniProt P22607); test: cell-based or functional assay
Sequence of UniProt P22607 (P22607 23-806): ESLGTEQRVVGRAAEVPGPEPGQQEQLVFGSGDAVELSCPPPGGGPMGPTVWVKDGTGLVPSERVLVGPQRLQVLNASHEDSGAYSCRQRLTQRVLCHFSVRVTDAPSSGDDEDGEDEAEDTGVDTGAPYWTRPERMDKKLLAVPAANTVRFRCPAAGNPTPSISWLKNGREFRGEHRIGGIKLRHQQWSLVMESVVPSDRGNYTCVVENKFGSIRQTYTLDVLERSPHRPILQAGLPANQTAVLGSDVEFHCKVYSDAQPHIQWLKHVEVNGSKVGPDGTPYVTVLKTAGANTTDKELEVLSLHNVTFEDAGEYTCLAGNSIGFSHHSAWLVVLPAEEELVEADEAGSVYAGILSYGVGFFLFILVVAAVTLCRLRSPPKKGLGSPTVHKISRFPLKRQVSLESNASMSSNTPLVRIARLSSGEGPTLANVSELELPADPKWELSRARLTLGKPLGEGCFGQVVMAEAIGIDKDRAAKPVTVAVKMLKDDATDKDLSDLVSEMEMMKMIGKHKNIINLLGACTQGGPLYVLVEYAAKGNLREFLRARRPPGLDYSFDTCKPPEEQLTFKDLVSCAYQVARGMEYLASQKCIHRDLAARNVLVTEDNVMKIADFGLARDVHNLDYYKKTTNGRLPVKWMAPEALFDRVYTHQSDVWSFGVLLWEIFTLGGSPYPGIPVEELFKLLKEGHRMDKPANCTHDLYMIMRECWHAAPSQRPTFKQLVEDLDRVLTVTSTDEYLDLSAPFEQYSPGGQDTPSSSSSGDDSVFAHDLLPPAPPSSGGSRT

[8] = cell line not stated (Caco-2 and T84 cells studied), PD98059 20 μM, SB203580 1 μM, LY294002 50 μM, antibodies 1:100
[9] = Caco-2 cells, agent given before or with 100 ng/ml FGFs (TM 200 μM, sodium chlorate 50 mM, LY294002 50 μM, PMA 100 ng/ml, antibodies 1:100)

Compound: COc1cccc(-c2cc(=O)c3ccccc3o2)c1N [PD98059, reference compound]
effect of added agent on FGF-induced reduction in TER [1, 8]: failed to eliminate the ligand mediated inhibition of TER

Compound: CCCCCCCCCCCCCC(=O)O[C@@H]1[C@@H](C)[C@@]2(O)[C@@H](C=C(CO)C[C@]3(O)C(=O)C(C)=C[C@@H]23)[C@@H]2C(C)(C)[C@]12OC(C)=O [PMA, phorbol 12-myristate 13-acetate, reference compound]
effect of added agent on FGF-induced reduction in TER [1, 9]: prevented FGF2 and FGF7 activity, but not that of FGF1

Compound: C[S+]([O-])c1ccc(-c2nc(-c3ccncc3)c(-c3ccc(F)cc3)[nH]2)cc1 (stereo not shown) [SB203580, reference compound]
effect of added agent on FGF-induced reduction in TER [1, 8]: failed to eliminate the ligand mediated inhibition of TER

Compound: [Na+].[O-][Cl+2]([O-])[O-] [Sodium chlorate, sodium chlorate, reference compound]
effect of added agent on FGF-induced reduction in TER [2]: eliminated the ability
effect of added agent on FGF-induced reduction in TER [1, 9]: eliminated the ability; also recorded: abrogated the ability

Compound: [NH4+].[NH4+].[SH-].[SH-].[S]=[Mo]=[S] [TM, Ammonium tetrathiomolybdate, reference compound]
effect of added agent on proliferative effect of FGF2 and FGF7 [3]: eliminated the proliferative effect of FGF2 and FGF7
effect of added agent on FGF-induced reduction in TER [2]: prevented
distribution of FGF1 [4]: retaining FGF1 closer to the nucleus
effect of added agent on proliferative effect of FGF2 and FGF7 [5]: eliminated the proliferative effect of FGF2 and FGF7
distribution of FGF1 [6]: retaining FGF1 closer to the nucleus
effect of added agent on FGF-induced reduction in TER [1, 9]: abrogated the reduction in TER induced by FGF2

Compound: Boiled FGF1: FGF1 that was boiled, used as control in the TER test
reduction of TER (in words) ([1]; cell line not stated (Caco-2 and T84 cells studied)): did not reduce TER

inhibition of increases in TER over three days, Caco-2 cells [7]: 35.1%
inhibition of increases in TER over three days, T84 cells [7]: 30.1%
reduction of TER at 48 hours, Caco-2 cells [7]: 45.1%
reduction of TER at 48 hours, T84 cells [7]: 22.7%
Compound: Recombinant human FGF1 (from UniProt P05230 16-155) (ligand)
